pEC50: −log10 of the molar value. *1 amine or outer side, *2 acyl side, *3 side chain or, on linkers, in order; H or OH if unused. Where a SMILES comes first, the peptide text is derived from it. Side-chain parts run from the residue outwards. [ ]: non-standard residue; d: D form. The star is where a group is joined. Isobutyryl(2-(3-CN-5-F-Ph)) = CC(C)(C(=O)*)c1cc(F)cc(C#N)c1; Ala(1H-tetrazol-5-yl) = N[C@@H](Cc1nnn[nH]1)C(=O)O; C20 diacid = O=C(O)CCCCCCCCCCCCCCCCCCC(=O)*; X31 = CC(C)(C(=S)NCCC(=O)*)c1cc(F)cc(C#N)c1; X73 = CC(C)(C(=S)NCCC(=O)*)c1ccc(F)c(F)c1; γGlu = O=C(O)[C@H](CCC(=O)[*:2])N[*:1]; X65 = CC(C)(C(=O)*)c1cc(N)cc(F)c1; αMeL = CC(C)C[C@](C)(N)C(=O)O; Orn = NCCC[C@H](N)C(=O)O; AEEA = NCCOCCOCC(=O)O; Aib = CC(C)(N)C(=O)O; βAla = NCCC(=O)O
What was measured:
Type in all cases: cell-based
GIP receptor [1] = biological target: T1, GIP receptor (Homo sapiens, UniProt P48546); experiment: PathHunter β-arrestin assay, GIP receptor; parameters: host or cells: PathHunter CHO-K1 GIPR β-Arrestin Cell Line; conditions: β-arrestin-2 recruitment, PathHunter CHO-K1 GIPR β-Arrestin Cell Line, 90 min at 37° C.; normalized to GIP; read-out: GIPR β Arrestin EC50
T1 sequence (P48546 22-466): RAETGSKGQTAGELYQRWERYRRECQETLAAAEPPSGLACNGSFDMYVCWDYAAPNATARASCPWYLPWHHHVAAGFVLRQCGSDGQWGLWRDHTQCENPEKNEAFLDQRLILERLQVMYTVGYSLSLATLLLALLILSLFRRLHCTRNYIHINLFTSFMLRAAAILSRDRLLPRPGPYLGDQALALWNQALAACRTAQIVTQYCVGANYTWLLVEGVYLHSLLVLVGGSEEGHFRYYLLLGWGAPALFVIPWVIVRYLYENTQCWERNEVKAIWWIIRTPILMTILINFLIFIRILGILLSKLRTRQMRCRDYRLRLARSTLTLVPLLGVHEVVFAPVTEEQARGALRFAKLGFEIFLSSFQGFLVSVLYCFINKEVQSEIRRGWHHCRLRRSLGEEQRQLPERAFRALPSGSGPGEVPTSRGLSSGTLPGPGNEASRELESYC

GLP-1 receptor [2] = biological target: T2, GLP-1 receptor (Homo sapiens, UniProt P43220); experiment: PathHunter β-arrestin assay, GLP-1 receptor; parameters: host or cells: PathHunter CHO-K1 GLP1R β-Arrestin Cell Line; conditions: β-arrestin-2 recruitment, PathHunter CHO-K1 GLP1R β-Arrestin Cell Line, 90 min at 37° C.; normalized to GLP-1; read-out: GLP-1R β Arrestin EC50
T2 sequence (P43220 24-463): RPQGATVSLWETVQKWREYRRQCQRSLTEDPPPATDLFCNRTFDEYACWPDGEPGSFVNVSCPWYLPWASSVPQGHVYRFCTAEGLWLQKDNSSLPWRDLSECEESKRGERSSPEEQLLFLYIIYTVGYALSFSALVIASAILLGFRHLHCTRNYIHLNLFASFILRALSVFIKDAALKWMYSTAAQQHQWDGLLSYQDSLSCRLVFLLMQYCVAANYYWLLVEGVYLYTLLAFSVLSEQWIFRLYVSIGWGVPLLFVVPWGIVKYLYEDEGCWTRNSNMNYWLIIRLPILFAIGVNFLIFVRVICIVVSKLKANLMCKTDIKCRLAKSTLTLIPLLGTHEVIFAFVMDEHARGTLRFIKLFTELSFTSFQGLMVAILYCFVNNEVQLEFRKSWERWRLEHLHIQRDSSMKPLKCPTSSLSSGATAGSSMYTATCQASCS

GIP receptor [3] = biological target: T1, GIP receptor; experiment: HitHunter cAMP assay, GIP receptor; conditions: for pEC50: CHO cells stably expressing GIP receptor, cAMP accumulation, 30 min, read-out: EC50 GIP-1R; for Emax: CHO cells, cAMP, normalized to maximum signal from GIP (high) and DMSO (low), read-out: Emax GIP-1R
GLP-1 receptor [4] = biological target: T2, GLP-1 receptor; experiment: HitHunter cAMP assay, GLP-1 receptor; conditions: for pEC50: CHO cells stably expressing human GLP-1 receptor, cAMP accumulation, 30 min, read-out: EC50 GLP-1R; for Emax: CHO cells, cAMP, normalized to maximum signal from GLP-1 (high) and DMSO (low), read-out: Emax GLP-1R
Procedure: CAMP accumulation was measured in Chinese hamster ovary (CHO) cells stably expressing the human GLP-1 receptor or GIP receptor using the HitHunter CAMP Assay for Small Molecules Kit (Eurofins). Briefly, cells were grown in Ham's F12 Nutrient Mix with 10% FBS and lifted with Cell dissociation buffer, Enzyme free, PBS based (ThermoFisher). Cells were pelleted and resuspended in Hank's buffered saline solution with 10 mM Hepes and 625 μM 3-isobutyl-1-methylxanthine. The antibody reagent was then added to cells at a 1:2 ratio and 5 μL of mixture was seeded in 384-well small volume white assay plates, at 10,000 cells/well. Cells were then treated with 50 nl compound in DMSO using an ECHO 550 acoustic dispenser (Labcyte) in a 20-point dose response format in triplicate for 30 min. Cells were the lysed and detection reagents added according to the manufacturer's protocol. After overnight incubation, luminescence was measured using a Perkin Elmer Envision plate reader. Raw data was normalized to the maximum signal from GLP-1 or GIP (high) and DMSO (low). Dose response curves were analyzed using GraphPad Prism 9.0.

SMILES: CC[C@H](C)[C@H](NC(=O)[C@H](CC(C)C)NC(=O)[C@H](Cc1c[nH]c2ccccc12)NC(=O)[C@H](CCC(N)=O)NC(=O)[C@@H](NC(=O)[C@H](Cc1ccccc1)NC(=O)[C@H](C)NC(=O)[C@H](CCCCNC(=O)COCCOCCNC(=O)COCCOCCNC(=O)CC[C@H](NC(=O)CCCCCCCCCCCCCCCCCCC(=O)O)C(=O)O)NC(=O)[C@H](CCC(N)=O)NC(=O)[C@H](C)NC(=O)[C@@H](NC(=O)[C@H](CCCCN)NC(=O)[C@H](CC(=O)O)NC(=O)[C@H](CC(C)C)NC(=O)C(C)(C)NC(=O)[C@@H](NC(=O)[C@H](CO)NC(=O)[C@H](Cc1ccc(O)cc1)NC(=O)[C@H](CC(=O)O)NC(=O)[C@H](CO)NC(=O)[C@@H](NC(=O)[C@H](Cc1ccccc1)NC(=O)[C@@H](NC(=O)CNC(=O)[C@H](CCC(=O)O)NC(=O)CCNC(=O)C(C)(C)c1cc(N)cc(F)c1)[C@@H](C)O)[C@@H](C)O)[C@@H](C)CC)[C@@H](C)CC)C(C)C)C(=O)N[C@@H](C)C(=O)NCC(=O)NCC(=O)N1CCC[C@H]1C(=O)N[C@@H](CO)C(=O)N[C@@H](CO)C(=O)NCC(=O)N[C@@H](C)C(=O)N1CCC[C@H]1C(=O)N1CCC[C@H]1C(=O)N1CCC[C@H]1C(=O)N[C@@H](CO)C(N)=O [Compound 133] ({X65-βAla}-EGTFTSDYSI[Aib]LDKIAQK([AEEA-AEEA-γGlu-C20 diacid])AFVQWLIAGGPSSGAPPPS-NH2)
- pEC50 (GIP receptor [1]): < 6.00
- pEC50 (GLP-1 receptor [2]): < 6.00
- pEC50 (GIP receptor [3]): 6.00 to 7.00
- Emax (GIP receptor [3]): 107%
- pEC50 (GLP-1 receptor [4]): 9.00 to 10.00
- Emax (GLP-1 receptor [4]): 104%

SMILES: CC[C@H](C)[C@H](NC(=O)[C@H](CC(C)C)NC(=O)[C@H](Cc1ccc(O)cc1)NC(=O)[C@@H](CCC(=O)O)NC(=O)[C@@H](NC(=O)[C@H](Cc1ccccc1)NC(=O)[C@H](CCC(=O)O)NC(=O)C(C)(C)NC(=O)[C@H](CCC(N)=O)NC(=O)[C@H](C)NC(=O)[C@H](CCCCNC(=O)COCCOCCNC(=O)COCCOCCNC(=O)CC[C@H](NC(=O)CCCCCCCCCCCCCCCCCCC(=O)O)C(=O)O)NC(=O)[C@H](CCCN)NC(=O)[C@H](CC(=O)O)NC(=O)[C@H](CC(C)C)NC(=O)[C@](C)(CC(C)C)NC(=O)[C@@H](NC(=O)[C@H](CO)NC(=O)[C@H](Cc1ccc(O)cc1)NC(=O)[C@H](CC(=O)O)NC(=O)[C@H](CO)NC(=O)[C@@H](NC(=O)[C@H](Cc1ccccc1)NC(=O)[C@@H](NC(=O)CNC(=O)[C@H](CCC(=O)O)NC(=O)CCNC(=O)C(C)(C)c1cc(F)cc(C#N)c1)[C@@H](C)O)[C@@H](C)O)[C@@H](C)CC)[C@@H](C)CC)C(=O)N[C@@H](CCC(=O)O)C(=O)NCC(=O)NCC(=O)N1CCC[C@H]1C(=O)N[C@@H](CO)C(=O)N[C@@H](CO)C(=O)NCC(=O)N[C@@H](C)C(=O)N1CCC[C@H]1C(=O)N1CCC[C@H]1C(=O)N1CCC[C@H]1C(=O)N[C@@H](CO)C(N)=O [Compound 134] ({Isobutyryl(2-(3-CN-5-F-Ph))-βAla}-EGTFTSDYSI[αMeL]LD[Orn]K([AEEA-AEEA-γGlu-C20 diacid])AQ[Aib]EFI[dE]YLIEGGPSSGAPPPS-NH2)
- pEC50 (GIP receptor [1]): < 6.00
- pEC50 (GLP-1 receptor [2]): < 6.00
- pEC50 (GIP receptor [3]): 8.00 to 9.00
- Emax (GIP receptor [3]): 109%
- pEC50 (GLP-1 receptor [4]): 9.00 to 10.00
- Emax (GLP-1 receptor [4]): 102%

SMILES: CC[C@H](C)[C@H](NC(=O)[C@H](CC(C)C)NC(=O)[C@H](Cc1c[nH]c2ccccc12)NC(=O)[C@H](CCC(N)=O)NC(=O)[C@@H](NC(=O)[C@H](Cc1ccccc1)NC(=O)[C@H](C)NC(=O)[C@H](CCCCNC(=O)COCCOCCNC(=O)COCCOCCNC(=O)CC[C@H](NC(=O)CCCCCCCCCCCCCCCCCCC(=O)O)C(=O)O)NC(=O)[C@H](CCC(N)=O)NC(=O)[C@H](C)NC(=O)[C@@H](NC(=O)[C@H](CCCCN)NC(=O)[C@H](CC(=O)O)NC(=O)[C@H](CC(C)C)NC(=O)C(C)(C)NC(=O)[C@@H](NC(=O)[C@H](CO)NC(=O)[C@H](Cc1ccc(O)cc1)NC(=O)[C@H](CC(=O)O)NC(=O)[C@H](CO)NC(=O)[C@@H](NC(=O)[C@H](Cc1ccccc1)NC(=O)[C@@H](NC(=O)CNC(=O)[C@H](CCC(=O)O)NC(=O)CCNC(=S)C(C)(C)c1cc(F)cc(C#N)c1)[C@@H](C)O)[C@@H](C)O)[C@@H](C)CC)[C@@H](C)CC)C(C)C)C(=O)N[C@@H](C)C(=O)NCC(=O)NCC(=O)N1CCC[C@H]1C(=O)N[C@@H](CO)C(=O)N[C@@H](CO)C(=O)NCC(=O)N[C@@H](C)C(=O)N1CCC[C@H]1C(=O)N1CCC[C@H]1C(=O)N1CCC[C@H]1C(=O)N[C@@H](CO)C(N)=O [Compound 135] (X31-EGTFTSDYSI[Aib]LDKIAQK([AEEA-AEEA-γGlu-C20 diacid])AFVQWLIAGGPSSGAPPPS-NH2)
- pEC50 (GIP receptor [1]): < 6.00
- pEC50 (GLP-1 receptor [2]): < 6.00
- pEC50 (GIP receptor [3]): 7.00 to 8.00
- Emax (GIP receptor [3]): 87%
- pEC50 (GLP-1 receptor [4]): 9.00 to 10.00
- Emax (GLP-1 receptor [4]): 99%

SMILES: CC[C@H](C)[C@H](NC(=O)[C@H](CC(C)C)NC(=O)[C@H](Cc1c[nH]c2ccccc12)NC(=O)[C@H](CCC(N)=O)NC(=O)[C@@H](NC(=O)[C@H](Cc1ccccc1)NC(=O)[C@H](C)NC(=O)[C@H](CCCCNC(=O)COCCOCCNC(=O)COCCOCCNC(=O)CC[C@H](NC(=O)CCCCCCCCCCCCCCCCCCC(=O)O)C(=O)O)NC(=O)[C@H](CCC(N)=O)NC(=O)[C@H](C)NC(=O)[C@@H](NC(=O)[C@H](CCCCN)NC(=O)[C@H](CC(=O)O)NC(=O)[C@H](CC(C)C)NC(=O)C(C)(C)NC(=O)[C@@H](NC(=O)[C@H](CO)NC(=O)[C@H](Cc1ccc(O)cc1)NC(=O)[C@H](CC(=O)O)NC(=O)[C@H](CO)NC(=O)[C@@H](NC(=O)[C@H](Cc1ccccc1)NC(=O)[C@@H](NC(=O)CNC(=O)[C@H](Cc1nn[nH]n1)NC(=O)CCNC(=O)C(C)(C)c1cc(F)cc(C#N)c1)[C@@H](C)O)[C@@H](C)O)[C@@H](C)CC)[C@@H](C)CC)C(C)C)C(=O)N[C@@H](C)C(=O)NCC(=O)NCC(=O)N1CCC[C@H]1C(=O)N[C@@H](CO)C(=O)N[C@@H](CO)C(=O)NCC(=O)N[C@@H](C)C(=O)N1CCC[C@H]1C(=O)N1CCC[C@H]1C(=O)N1CCC[C@H]1C(=O)N[C@@H](CO)C(N)=O [Compound 136] ({Isobutyryl(2-(3-CN-5-F-Ph))-βAla}-[Ala(1H-tetrazol-5-yl)]GTFTSDYSI[Aib]LDKIAQK([AEEA-AEEA-γGlu-C20 diacid])AFVQWLIAGGPSSGAPPPS-NH2)
- pEC50 (GIP receptor [1]): > 6.00
- pEC50 (GLP-1 receptor [2]): < 6.00
- pEC50 (GIP receptor [3]): 8.00 to 9.00
- Emax (GIP receptor [3]): 99%
- pEC50 (GLP-1 receptor [4]): > 10.00
- Emax (GLP-1 receptor [4]): 101%

SMILES: CC[C@H](C)[C@H](NC(=O)[C@H](CC(C)C)NC(=O)[C@H](Cc1c[nH]c2ccccc12)NC(=O)[C@H](CCC(N)=O)NC(=O)[C@@H](NC(=O)[C@H](Cc1ccccc1)NC(=O)[C@H](C)NC(=O)[C@H](CCCCNC(=O)COCCOCCNC(=O)COCCOCCNC(=O)CC[C@H](NC(=O)CCCCCCCCCCCCCCCCCCC(=O)O)C(=O)O)NC(=O)[C@H](CCC(N)=O)NC(=O)[C@H](C)NC(=O)[C@@H](NC(=O)[C@H](CCCCN)NC(=O)[C@H](CC(=O)O)NC(=O)[C@H](CC(C)C)NC(=O)C(C)(C)NC(=O)[C@@H](NC(=O)[C@H](CO)NC(=O)[C@H](Cc1ccc(O)cc1)NC(=O)[C@H](CC(=O)O)NC(=O)[C@H](CO)NC(=O)[C@@H](NC(=O)[C@H](Cc1ccccc1)NC(=O)[C@@H](NC(=O)CNC(=O)[C@H](CCC(=O)O)NC(=O)CCNC(=S)C(C)(C)c1ccc(F)c(F)c1)[C@@H](C)O)[C@@H](C)O)[C@@H](C)CC)[C@@H](C)CC)C(C)C)C(=O)N[C@@H](C)C(=O)NCC(=O)NCC(=O)N1CCC[C@H]1C(=O)N[C@@H](CO)C(=O)N[C@@H](CO)C(=O)NCC(=O)N[C@@H](C)C(=O)N1CCC[C@H]1C(=O)N1CCC[C@H]1C(=O)N1CCC[C@H]1C(=O)N[C@@H](CO)C(N)=O [Compound 137] (X73-EGTFTSDYSI[Aib]LDKIAQK([AEEA-AEEA-γGlu-C20 diacid])AFVQWLIAGGPSSGAPPPS-NH2)
- pEC50 (GIP receptor [1]): < 6.00
- pEC50 (GLP-1 receptor [2]): < 6.00
- pEC50 (GIP receptor [3]): 7.00 to 8.00
- Emax (GIP receptor [3]): 87%
- pEC50 (GLP-1 receptor [4]): 9.00 to 10.00
- Emax (GLP-1 receptor [4]): 99%

Reference: patent US12281149B2, “Modulators of G-protein coupled receptors” (priority 2021, dated 2025)
